# Entries after “also recorded” stand apart in the source; their conditions may differ.
# Tested on: MnPO^nNOS neurons
# Test: Drinking assays with chemogenetic inhibition of MnPO^nNOS neurons by CNO
# Type: in vivo, mice
# Settings: hM4Di in MnPO^nNOS, CNO injection 10 mg/kg
# Procedure: For water-restriction experiments, animals were provided with 1 mL of water daily. For food restriction experiments, animals were provided 0.5 pellets/20 g body weight daily. All assays were performed in a modified lickometer as described previously^[35] or Biodaq monitoring system (Research Diets Inc). For all photometry assays, animals were acclimatized for 10-15 min in the lickometer cage before stimuli were given.
# Long-term access assays: Optogenetic Testing—For FIGS. 1L-N and FIGS. 7L-O, satiated mice were given ad libitum access to water for 20 min with photostimulation. Photostimulation was delivered for 1-s followed by 3-s intervals throughout the behavioral sessions. For FIGS. 2J-M and FIGS. 11C-E, mice were given access to water for 20 min after 24 h water-restriction, and photostimulation was delivered for the first 10 min. For feeding assays (FIGS. 2J-M), animals were single-housed in Biodaq cages after 24 h food-restriction, and chow intake was measured for 20 min with or without light stimulation. For acute inhibition experiments, mice were given access to 150 mM NaCl (FIGS. 5D-E, FIGS. 13E-F), water (FIGS. 1L-N, FIGS. 7L-O, FIGS. 13A-D, FIGS. 13G-H) for 20-30 min after 24 h water-restriction or 300 mM sucrose (FIGS. 1L-N, FIGS. 7L-O) after food-restriction. For all acute inhibition experiments, CNO was injected at 10 mg/kg body weight, 30 min prior to the start of the behavior session. For acute activation experiments, CNO was injected at 1 mg/kg body weight (FIGS. 12L-M), 30 min prior to the start of the behavior session. For FIG. 3A, FIGS. 9A-C, and FIG. 13L, water or saline access was provided for 30 min after 24 hours of water restriction. For FIGS. 4A-B, water or HydroGel (ClearH2O) in a cup was provided for 30 min after 24 and 36 hours of water restriction, respectively. The weight of the cup was measured before and after the behavior session. For FIGS. 4K-L, 0.5 pellets of chow was provided for 30 min after 24 h food-restriction. The entire session was recorded using a camera at 30 fps and ingestion episodes were manually annotated. […]
compound,measurement,setting,value
"C[N+]1([O-])CCN(C2=Nc3cc(Cl)ccc3Nc3ccccc32)CC1 [CNO, clozapine-N-oxide]",SFO^nNOS-stimulated water intake,SFO^nNOS photostimulation,severely suppressed water consumption; also recorded: severely reduced
same,sucrose (300 mM) consumption,food-restricted animals,did not decrease sugar; also recorded: did not suppress sucrose consumption
same,dehydration-induced water intake,water-restricted animals,severely suppressed water consumption; also recorded: severely reduced

# — US10960084B2, “Modulation of fluid intake” (California Institute of Technology, priority 2018, dated 2021)
